Test results from paper PMC7048748, “Anxiolytic Drug FGIN-1-27 Ameliorates Autoimmunity by Metabolic Reprogramming of Pathogenic Th17 Cells” (Scientific Reports, 2020).

Experiments:
[1] = target: T1, TSPO (Rattus norvegicus, UniProt P16257); experiment: TSPO (BZDp) antagonist radioligand displacement assay; format: binding
T1 construct: Eurofins Cerep (France), contract assay
From the text: We explored the mechanism of action for FGIN-1-27 and whether the effect of FGIN-1-27 on Th17 differentiation was driven by TSPO, the reported target of this compound. We used two approaches: first, we investigated the correlation between FGIN-1-27 induced IL-17 down-regulation and binding to TSPO. For the binding studies, we used a biochemical radio ligand displacement assay with the well-characterized TSPO ligand PK-11195 as a tracer. […] Secondly, we purified CD4^+ T cells from spleen and lymph nodes of mice that lacked global expression of TSPO (TSPO KO mice)[19]. We added FGIN-1-27 to the cultures of CD4^+ T cells from controls or TSPO KO mice that were induced towards the Th17 differentiation program.
FGIN-1-27 were tested at 8 doses (0.3–40 µM) in the TSPO (BZDp) antagonist radioligand displacement assay at Eurofins Cerep (France). Radiolabeled PK11195 was used as a control and TSPO binding was calculated as a percent inhibition of control specific binding using the formula 100-(measured specific binding*100/control specific binding).
(§1) (h) Dose response plot showing effect of FGIN-1-27 on intracellular IL-17 and viability in pre- differentiated Th17 cells after re- stimulation. Data is normalized against […]
(i) Mean clinical scores of mice following active induction of EAE. Mice were injected i/p twice daily with vehicle or FGIN-1-27 for 7 days. Data are pooled from 5 mice/group. […]

[2] = set-up: method as in PMID 21119734, PMID 1326631, PMID 29698632; conditions: cited from earlier work
[3] = tested on: polarized Th17 cells; experiment: IL-17 production in fully differentiated Th17 cells after re-stimulation; format: cell-based, mouse; conditions: on re-stimulation
Method: We also tested whether FGIN-1-27 regulated IL-17 production in fully differentiated Th17 cells. […] Thus, FGIN-1-27 inhibits Th17 cell differentiation in vitro without compromising T cell activation or survival.
as §1
(i) Mean clinical scores of mice following active induction of EAE. Mice were injected i/p twice daily with vehicle or FGIN-1-27 for 7 days. Data are pooled from 5 mice/group. The error bars represent SEM.
(j) Binding of FGIN-1-27 to TSPO in a radioligand displacement assay. Inhibition of binding of control (radiolabeled PK-11195) was used to determine binding of FGIN- […]
(§2) (1 picture or pasted object on this page, not shown here)

[4] = tested on: Th17 cells; experiment: Cholesterol panel (sterols) in Th17 cells; format: cell-based, mouse; conditions: 72 hours; for 7-DHC / 7-HC / -SITO / CAMP / CHOL / COPR / CSTN: Cholestanol / DESM / LANO / LATH / SQUA / STIG / ZYMO: Cell
Method: Specific cholesterol precursors like desmosterol and oxysterols, such as 7β, 27-dihydroxycholesterol (7β, 27-OHC), have been identified as ligands for RORγt[21],[22] and shown to modulate Th17 differentiation. […] Next, we extended our studies to lipid metabolites and profiled the lipidome of Th17 cells treated with DMSO or FGIN-1-27. […]
(a) Indicated sterols were measured in Th17 cells treated with DMSO or FGIN-1-27 for
as §2

T1 sequence (P16257 whole entry): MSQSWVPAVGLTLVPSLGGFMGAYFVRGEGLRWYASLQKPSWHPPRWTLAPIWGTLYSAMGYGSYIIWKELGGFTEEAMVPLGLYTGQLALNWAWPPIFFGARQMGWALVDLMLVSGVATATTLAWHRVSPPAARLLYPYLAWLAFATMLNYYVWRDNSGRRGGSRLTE

CCCCCCN(CCCCCC)C(=O)Cc1c(-c2ccc(F)cc2)[nH]c2ccccc12 [FGIN-1-27, N, N-di-n-hexyl 2-(4-fluorophenyl) indole-3-acetamide]
displacement of PK-11195 ([1]; 0.3 µM, lowest validated testing concentration): more than 90% | binding to TSPO ([1]; 0.3–40 µM): high affinity | crossing of the blood brain barrier [2]: can cross the blood brain barrier | IL-17 producing cells in fully differentiated Th17 cells [3]: fewer IL-17 producing cells were detected | levels of cholesterol, its precursors and oxysterols ([4]; vs DMSO): comparable | 7-DHC [4]: 21.45 nMoles/billion | 7-HC [4]: 0.68 nMoles/billion | -SITO [4]: 1.81 nMoles/billion | CAMP [4]: 4.37 nMoles/billion | CHOL [4]: 1426.96 nMoles/billion | COPR [4]: 0.37 nMoles/billion | CSTN: Cholestanol [4]: 2.54 nMoles/billion | DESM [4]: 26.06 nMoles/billion | LANO [4]: 0.57 nMoles/billion | LATH [4]: 10.58 nMoles/billion | SQUA [4]: 13.58 nMoles/billion | STIG [4]: 0.09 nMoles/billion | ZYMO [4]: 0.37 nMoles/billion | 7-DHC ([4]; listed as FGIN2): 29.74 nMoles/billion | 7-HC ([4]; listed as FGIN2): 1.01 nMoles/billion | -SITO ([4]; listed as FGIN2): 66.45 nMoles/billion | CAMP ([4]; listed as FGIN2): 6.00 nMoles/billion | CHOL ([4]; listed as FGIN2): 1968.79 nMoles/billion | COPR ([4]; listed as FGIN2): 0.04 nMoles/billion | CSTN: Cholestanol ([4]; listed as FGIN2): 5.53 nMoles/billion | DESM ([4]; listed as FGIN2): 47.55 nMoles/billion | LANO ([4]; listed as FGIN2): 0.96 nMoles/billion | LATH ([4]; listed as FGIN2): 13.90 nMoles/billion | SQUA ([4]; listed as FGIN2): 16.54 nMoles/billion | STIG ([4]; listed as FGIN2): 8.18 nMoles/billion | ZYMO ([4]; listed as FGIN2): 0.44 nMoles/billion | 7-DHC ([4]; listed as FGIN3): 22.18 nMoles/billion | 7-HC ([4]; listed as FGIN3): 1.04 nMoles/billion | -SITO ([4]; listed as FGIN3): 2.54 nMoles/billion | CAMP ([4]; listed as FGIN3): 7.76 nMoles/billion | CHOL ([4]; listed as FGIN3): 2113.85 nMoles/billion | COPR ([4]; listed as FGIN3): 0.0757 nMoles/billion | CSTN: Cholestanol ([4]; listed as FGIN3): 4.07 nMoles/billion | DESM ([4]; listed as FGIN3): 37.52 nMoles/billion | LANO ([4]; listed as FGIN3): 0.93 nMoles/billion | LATH ([4]; listed as FGIN3): 15.86 nMoles/billion | SQUA ([4]; listed as FGIN3): 17.48 nMoles/billion | STIG ([4]; listed as FGIN3): 0.73 nMoles/billion | ZYMO ([4]; listed as FGIN3): 0.68 nMoles/billion | 7-DHC ([4]; listed as FGIN4): 17.23 nMoles/billion | 7-HC ([4]; listed as FGIN4): 0.75 nMoles/billion | -SITO ([4]; listed as FGIN4): 1.38 nMoles/billion | CAMP ([4]; listed as FGIN4): 4.69 nMoles/billion | CHOL ([4]; listed as FGIN4): 1456.01 nMoles/billion | COPR ([4]; listed as FGIN4): 0.06 nMoles/billion | CSTN: Cholestanol ([4]; listed as FGIN4): 2.93 nMoles/billion | DESM ([4]; listed as FGIN4): 26.10 nMoles/billion | LANO ([4]; listed as FGIN4): 0.61 nMoles/billion | LATH ([4]; listed as FGIN4): 10.88 nMoles/billion | SQUA ([4]; listed as FGIN4): 2.92 nMoles/billion | STIG ([4]; listed as FGIN4): 0.05 nMoles/billion | ZYMO ([4]; listed as FGIN4): 0.40 nMoles/billion
